This passage reports IC50 results from patent US7081460B2, “Quinazoline and quinazoline-like compounds for the treatment of integrin-mediated disorders” (Ortho-McNeil Pharmaceutical, Inc., priority 2001, dated 2006).

For test [1], the target named is T1, Human αvβ3 (Homo sapiens, UniProt P05106+P06756).
T1 construct: purchased Chemicon International Inc., Temecula, Calif
In words: In vitro solid phase purified αvβ3 binding assay (vitronectin/αvβ3). The settings on record: isolated human αvβ3, 5 nM vitronectin; read-out: αvβ3 Binding IC50. The protocol: (§1) In vitro Solid Phase Purified αvβ3 Binding Assay The vitronectin/αvβ3 binding assay methods were derived from Mehta et al. (Biochem J. 1998, 330, 861). Human αvβ3 (Chemicon International Inc., Temecula, Calif.), at a concentration of 1 μg/ml dissolved in Tris buffer (20 mM Tris, 1 mM CaCl2, 1 mM MgCl2, 10 μM MnCl2, 150 mM NaCl), was immobilized on Immulon 96 well plates (Dynex Technologies, Chantilly, Va.) overnight at 4° C. Plates were washed and treated with blocking buffer (3% BSA in Tris buffer) for 2 h at 37 C. Plates were then rinsed 2 times in Tris buffer containing 0.3% BSA and 0.2% Tween20 (polyoxyethylenesorbitan monolaurate). Five minutes prior to the addition of 5 nM vitronectin (Sigma, St. Louis, Mo.), compounds of the invention were added to wells in duplicate. Each plate included c-RGDfV as an internal control. Following a 3 hour incubation at 37° C., plates were washed 5 times in assay buffer. An anti-human vitronectin IgG rabbit polyclonal antibody (Calbiochem, San Diego, Calif.) was added (1:2000) and plates were incubated for 1 hour at room temperature. VectaStain ABC peroxidase kit reagents (Vector Laboratories, Burlingame, Calif.) employing a biotin labeled anti-rabbit IgG, were utilized for detection of bound antibody. Plates were read at 490 nm on a Molecular Devices (Sunnyvale, Calif.) microplate reader. […] The plate was covered and incubated overnight at 4° C. The GPIIb/IIIa solution was discarded and 150 μl of 5% BSA was added and incubated at RT for 1–3 h. The plate was washed extensively with modified Tyrodes buffer. Biotinylated fibrinogen (25 μl/well) at 2× final concentration was added to the wells that contain the test compounds (25 μl/well). The plate was covered and incubated at RT for 2–4 h. Twenty minutes prior to incubation completion, one drop of Reagent A (VectaStain ABC Horse Radish Peroxidase kit, Vector Laboratories, Inc.) and one drop Reagent B were added with mixing to 5 mL modified Tyrodes buffer mix and let stand. The ligand solution was discarded and the plate washed (5×200 μl/well) with modified Tyrodes buffer. Vecta Stain HRP-Biotin-Avidin reagent (50 μl/well, as prepared above) was added and incubated at RT for 15 min. The Vecta Stain solution was discarded and the wells washed (5×200 μl/well) with modified Tyrodes buffer. Developing buffer (10 mL of 50 mM citrate/phosphate buffer @ pH 5.3, 6 mg o-phenylenediamine, 6 μl 30% H2O2; 50 μl/well) was added and incubated at rt for 3–5 min, and then 2 N H2SO4 (50 μl/well) was added. The absorbance was read at 490 nm.

Test [2] concerns the target GPIIb/IIIa (Homo sapiens, UniProt P05106+P08514). The test can be described thus: In vitro solid phase purified glycoprotein IIb/IIIa binding assay (biotinylated fibrinogen). The settings on record: RGD-affinity purified GPIIb/IIIa, biotinylated fibrinogen; read-out: GPIIb/IIIa Binding IC50. The protocol: as §1

GPIIb/IIIa, sequence (P08514 32-887 limits assumed): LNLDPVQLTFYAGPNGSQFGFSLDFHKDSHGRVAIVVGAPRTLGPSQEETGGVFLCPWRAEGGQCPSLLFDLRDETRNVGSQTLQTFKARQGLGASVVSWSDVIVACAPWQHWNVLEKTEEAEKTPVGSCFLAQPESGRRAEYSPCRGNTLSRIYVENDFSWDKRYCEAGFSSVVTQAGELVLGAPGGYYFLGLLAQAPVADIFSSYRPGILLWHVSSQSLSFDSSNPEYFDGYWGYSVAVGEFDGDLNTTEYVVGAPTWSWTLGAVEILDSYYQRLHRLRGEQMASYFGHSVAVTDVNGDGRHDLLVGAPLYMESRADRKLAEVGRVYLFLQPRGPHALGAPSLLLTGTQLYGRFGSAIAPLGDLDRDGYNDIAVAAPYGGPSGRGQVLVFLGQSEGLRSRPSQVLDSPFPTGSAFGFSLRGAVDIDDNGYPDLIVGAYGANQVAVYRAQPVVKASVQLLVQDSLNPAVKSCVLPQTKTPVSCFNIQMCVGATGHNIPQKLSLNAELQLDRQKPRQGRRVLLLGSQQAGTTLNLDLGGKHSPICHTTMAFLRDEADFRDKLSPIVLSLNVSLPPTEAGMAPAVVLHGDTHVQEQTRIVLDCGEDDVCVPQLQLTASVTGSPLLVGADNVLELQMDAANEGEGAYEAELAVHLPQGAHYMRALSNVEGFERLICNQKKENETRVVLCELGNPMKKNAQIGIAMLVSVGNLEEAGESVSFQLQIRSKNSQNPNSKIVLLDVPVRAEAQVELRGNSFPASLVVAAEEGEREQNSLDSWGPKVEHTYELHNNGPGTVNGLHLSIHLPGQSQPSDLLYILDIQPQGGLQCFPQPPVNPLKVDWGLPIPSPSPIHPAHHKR
GPIIb/IIIa, sequence (P08514 891-1039 partner limits assumed): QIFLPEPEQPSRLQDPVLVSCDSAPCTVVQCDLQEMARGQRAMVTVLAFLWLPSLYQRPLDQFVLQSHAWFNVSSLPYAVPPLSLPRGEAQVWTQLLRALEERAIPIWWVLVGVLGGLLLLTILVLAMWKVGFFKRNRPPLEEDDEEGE
GPIIb/IIIa, sequence (P05106 27-788): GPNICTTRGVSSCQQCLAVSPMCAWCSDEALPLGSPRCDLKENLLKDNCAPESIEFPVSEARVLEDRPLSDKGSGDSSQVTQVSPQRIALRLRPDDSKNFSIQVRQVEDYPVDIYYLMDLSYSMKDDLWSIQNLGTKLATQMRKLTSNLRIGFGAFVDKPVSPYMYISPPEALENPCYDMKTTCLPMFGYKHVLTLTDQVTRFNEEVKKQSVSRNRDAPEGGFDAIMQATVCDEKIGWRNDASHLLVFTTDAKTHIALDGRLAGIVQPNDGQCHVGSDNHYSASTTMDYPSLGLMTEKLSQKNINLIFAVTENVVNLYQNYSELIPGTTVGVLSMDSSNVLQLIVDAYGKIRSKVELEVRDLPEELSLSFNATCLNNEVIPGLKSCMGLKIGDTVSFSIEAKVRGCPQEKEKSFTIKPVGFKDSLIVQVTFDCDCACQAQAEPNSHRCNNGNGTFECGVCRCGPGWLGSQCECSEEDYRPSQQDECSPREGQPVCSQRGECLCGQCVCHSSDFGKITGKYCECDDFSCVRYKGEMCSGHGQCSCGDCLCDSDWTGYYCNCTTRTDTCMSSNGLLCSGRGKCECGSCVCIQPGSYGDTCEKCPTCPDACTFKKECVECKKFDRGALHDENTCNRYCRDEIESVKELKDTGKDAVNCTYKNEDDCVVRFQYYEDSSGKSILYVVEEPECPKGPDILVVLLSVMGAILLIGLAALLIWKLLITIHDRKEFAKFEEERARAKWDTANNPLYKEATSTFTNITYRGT
T1 sequence (P06756 31-889 limits assumed): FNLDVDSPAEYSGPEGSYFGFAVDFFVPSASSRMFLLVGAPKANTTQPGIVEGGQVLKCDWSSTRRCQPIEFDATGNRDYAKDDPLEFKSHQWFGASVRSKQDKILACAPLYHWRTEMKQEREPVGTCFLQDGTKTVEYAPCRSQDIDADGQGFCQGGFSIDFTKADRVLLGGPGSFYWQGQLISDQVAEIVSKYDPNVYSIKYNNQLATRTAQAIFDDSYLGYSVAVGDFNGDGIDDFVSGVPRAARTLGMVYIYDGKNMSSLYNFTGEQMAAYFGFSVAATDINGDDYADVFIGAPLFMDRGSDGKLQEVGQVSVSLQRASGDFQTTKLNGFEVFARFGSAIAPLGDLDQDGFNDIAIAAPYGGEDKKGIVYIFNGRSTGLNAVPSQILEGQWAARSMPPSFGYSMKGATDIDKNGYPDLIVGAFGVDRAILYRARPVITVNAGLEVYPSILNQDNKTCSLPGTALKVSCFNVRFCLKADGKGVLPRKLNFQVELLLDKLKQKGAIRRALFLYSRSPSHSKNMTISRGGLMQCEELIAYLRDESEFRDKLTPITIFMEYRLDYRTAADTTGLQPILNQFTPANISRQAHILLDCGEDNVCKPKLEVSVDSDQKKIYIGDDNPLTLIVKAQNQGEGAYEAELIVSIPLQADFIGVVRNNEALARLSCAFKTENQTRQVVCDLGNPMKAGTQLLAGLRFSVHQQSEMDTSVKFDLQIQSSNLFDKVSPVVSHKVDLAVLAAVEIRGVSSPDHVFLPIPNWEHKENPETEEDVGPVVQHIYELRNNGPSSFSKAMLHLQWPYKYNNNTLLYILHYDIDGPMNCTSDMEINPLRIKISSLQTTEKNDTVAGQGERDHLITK
T1 sequence (P06756 891-1048 partner limits assumed): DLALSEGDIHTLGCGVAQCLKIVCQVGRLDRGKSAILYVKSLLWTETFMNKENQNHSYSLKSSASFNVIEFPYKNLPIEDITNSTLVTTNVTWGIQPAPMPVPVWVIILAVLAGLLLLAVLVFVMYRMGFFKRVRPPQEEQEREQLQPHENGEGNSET
T1 sequence (P05106 27-788): as the sequence (P05106 27-788) above

For “6-[(1E)-3-[(4,5-dihydro-1H-imidazol-2-yl)amino]-1-propenyl]-(αS)-3,4-dihydro-4-oxo-α-[[[(E)-2-phenylethenyl]sulfonyl]amino]-2-quinazolinepropanoic Acid [Compound 7]”, the IC50 in test [1] was 7 nM; in test [2], 330 nM.

Turning to “6-[(1E)-4-[[(aminoiminomethyl)amino]oxy]-1-butenyl]-(αS)-3,4-dihydro-4-oxo-α-[[(2,3,4,5,6-pentamethylphenyl)sulfonyl]amino]-2-quinazolinepropanoic Acid [Compound 16]”, the IC50 in test [1] was determined as 268 nM; in test [2] it was 36 nM.

For the compound `Cc1c(C)c(C)c(S(=O)(=O)N[C@@H](Cc2nc3ccc(/C=C/CNC4=NCCN4)cc3c(=O)[nH]2)C(=O)O)c(C)c1C` [Compound 1, 6-[(1E)-3-[(4,5-dihydro-1H-imidazol-2-yl)amino]-1-propenyl]-(αS)-3,4-dihydro-4-oxo-α-[[(2,3,4,5,6-pentamethylphenyl)sulfonyl]amino]-2-quinazolinepropanoic Acid], the IC50 in test [1] is 0.75 nM; in test [2], 24 nM.

Take `O=C(N[C@@H](Cc1nc2ccc(/C=C/CNC3=NCCN3)cc2c(=O)[nH]1)C(=O)O)OCc1ccccc1` [Compound 2, 6-[(1E)-3-[(4,5-dihydro-1H-imidazol-2-yl)amino]-1-propenyl]-(αS)-3,4-dihydro-4-oxo-α-[[(phenylmethoxy)carbonyl]amino]-2-quinazolinepropanoic Acid]: the IC50 in test [1] is 55 nM; in test [2], 560 nM.

Take `Cc1cc(C)c(S(=O)(=O)N[C@@H](Cc2nc3ccc(/C=C/CNC4=NCCN4)cc3c(=O)[nH]2)C(=O)O)c(C)c1` [Compound 3, 6-[(1E)-3-[(4,5-dihydro-1H-imidazol-2-yl)amino]-1-propenyl]-(αS)-3,4-dihydro-4-oxo-a-[[(2,4,6-trimethylphenyl)sulfonyl]amino]-2-quinazolinepropanoic Acid]: the IC50 in test [1] stood at 3.2 nM; in test [2], 78 nM.

As to `O=C(O)[C@H](Cc1nc2ccc(/C=C/CNC3=NCCN3)cc2c(=O)[nH]1)NS(=O)(=O)c1cccc2cccnc12` [Compound 4, 6-[(1E)-3-[(4,5-dihydro-1H-imidazol-2-yl)amino]-1-propenyl]-(αS)-3,4-dihydro-4-oxo-α-[(8-quinolinylsulfonyl)amino]-2-quinazolinepropanoic Acid], the IC50 in test [1] worked out at 14 nM; in test [2], 320 nM.

`O=C(O)[C@H](Cc1nc2ccc(/C=C/CNC3=NCCN3)cc2c(=O)[nH]1)NS(=O)(=O)CCc1cccc2ccccc12` [Compound 5, 6-[(1E)-3-[(4,5-dihydro-1H-imidazol-2-yl)amino]-1-propenyl]-(αS)-3,4-dihydro-α-[[[2-(1-naphthalenyl)ethyl]sulfonyl]amino]-4-oxo-2-quinazolinepropanoic Acid]: the IC50 in test [1] amounted to 8.6 nM; in test [2], 670 nM.

Take `O=C(O)[C@H](Cc1nc2ccc(/C=C/CNC3=NCCN3)cc2c(=O)[nH]1)NS(=O)(=O)c1ccc(-c2ccccn2)s1` [Compound 6, 6-[(1E)-3-[(4,5-dihydro-1H-imidazol-2-yl)amino]-1-propenyl]-(αS)-3,4-dihydro-4-oxo-α-[[[5-(2-pyridinyl)-2-thienyl]sulfonyl]amino]-2-quinazolinepropanoic Acid]: the values for the IC50 in test [1] and in test [2] were 5.3 nM and 41 nM, respectively.

Consider `O=C(N[C@@H](Cc1nc2ccc(/C=C/CCNC3=NCCN3)cc2c(=O)[nH]1)C(=O)O)OCc1ccccc1` [Compound 8, 6-[(1E)-4-[(4,5-dihydro-1H-imidazol-2-yl)amino]-1-butenyl]-(αS)-3,4-dihydro-4-oxo-α-[[(phenylmethoxy)carbonyl]amino]-2-quinazolinepropanoic Acid], for which the IC50 in test [1] amounted to 210 nM; in test [2] it was 580 nM.

As to `O=C(N[C@@H](Cc1nc2ccc(-c3cccc(NC4=NCCN4)c3)cc2c(=O)[nH]1)C(=O)O)OCc1ccccc1` [Compound 9, 6-[3-[(4,5-dihydro-1H-imidazol-2-yl)amino]phenyl]-(αS)-3,4-dihydro-4-oxo-α-[[(phenylmethoxy)carbonyl]amino]-2-quinazolinepropanoic Acid], the IC50 in test [1] was more than 5000 nM; in test [2] it was 88 nM.

For the compound `Cc1c(C)c(C)c(S(=O)(=O)N[C@@H](Cc2nc3ccc(/C=C/CNc4ccccn4)cc3c(=O)[nH]2)C(=O)O)c(C)c1C` [Compound 10, (αS)-3,4-dihydro-4-oxo-α-[[(2,3,4,5,6-pentamethylphenyl)sulfonyl]amino]-6-[(1E)-3-(2-pyridinylamino)-1-propenyl]-2-quinazolinepropanoic Acid], the figures for the IC50 in test [1] and in test [2] were 6.1 nM and 640 nM, respectively.

Regarding `Cc1c(C)c(C)c(S(=O)(=O)N[C@@H](Cc2nc3ccc(CCCNc4ccccn4)cc3c(=O)[nH]2)C(=O)O)c(C)c1C` [Compound 11, (αS)-3,4-dihydro-4-oxo-α-[[(2,3,4,5,6-pentamethylphenyl)sulfonyl]amino]-6-[3-(2-pyridinylamino)propyl]-2-quinazolinepropanoic Acid], the IC50 in test [1] came out at 9.6 nM; in test [2] it was 640 nM.

Regarding `O=C(Nc1ccccc1)N[C@@H](Cc1nc2ccc(/C=C/CNc3ccccn3)cc2c(=O)[nH]1)C(=O)O` [Compound 12, (αS)-3,4-dihydro-4-oxo-α-[[(phenylamino)carbonyl]amino]-6-[(E)-3-(2-pyridinylamino)-1-propenyl]-2-quinazolinepropanoic Acid], the IC50 in test [1] was more than 500 nM; in test [2] it was 18000 nM.

`Cc1c(C)c(C)c(S(=O)(=O)N[C@@H](Cc2nc3ccc(/C=C/CNC(=O)Nc4ccccc4)cc3c(=O)[nH]2)C(=O)O)c(C)c1C` [Compound 13, (αS)-3,4-dihydro-4-oxo-α-[[(2,3,4,5,6-pentamethylphenyl)sulfonyl]amino]-6-[(1E)-3-[[(phenylamino)carbonyl]amino]-1-propenyl]-2-quinazolinepropanoic Acid]: the IC50 in test [1] amounted to 140 nM; in test [2] it was 1700 nM.

Regarding `Cc1c(C)c(C)c(S(=O)(=O)N[C@H](CC(=O)O)c2nc3ccc(/C=C/CNc4ccccn4)cc3c(=O)[nH]2)c(C)c1C` [Compound 14, (βR)-3,4-dihydro-4-oxo-β-[[(2,3,4,5,6-pentamethylphenyl)sulfonyl]amino]-6-[(1E)-3-(2-pyridinylamino)-1-propenyl]-2-quinazolinepropanoic Acid], the values for the IC50 in test [1] and in test [2] were 25 nM and 1800 nM, respectively.

For the compound `Cc1c(C)c(C)c(S(=O)(=O)N[C@@H](Cc2nc3ccc(/C=C/CNC4=NCCC4)cc3c(=O)[nH]2)C(=O)O)c(C)c1C` [Compound 15, 6-[(1E)-3-[(3,4-dihydro-2H-pyrrol-5-yl)amino]-1-propenyl]-(αS)-3,4-dihydro-4-oxo-α-[[(2,3,4,5,6-pentamethylphenyl)sulfonyl]amino]-2-quinazolinepropanoic Acid], the IC50 turned out to be 18 nM in test [1] and 77 nM in test [2].

`COc1cccc([C@@H](CC(=O)O)c2nc3ccc(/C=C/CNc4ccccn4)cc3c(=O)[nH]2)c1` [Compound 17, (βR)-3,4-dihydro-β-(3-methoxyphenyl)-4-oxo-6-[(1E)-3-(2-pyridinylamino)-1-propenyl]-2-quinazolinepropanoic Acid]: the IC50 in test [1] is more than 50000 nM; in test [2] it was 18000 nM.

As for `CC(C)(C)c1ccc(S(=O)(=O)N[C@@H](Cc2nc3ccc(/C=C/CNc4ccccn4)cc3c(=O)[nH]2)C(=O)O)cc1` [Compound 23, α-[[[4-(1,1-dimethylethyl)phenyl]sulfonyl]amino]-(αS)-3,4-dihydro-4-oxo-6-[(1E)-3-(2-pyridinylamino)-1-propenyl]-2-quinazolinepropanoic acid], the IC50 in test [2] is 6400 nM.

With `Cc1c(C)c(C)c(S(=O)(=O)N[C@@H](Cc2nc3ccc(/C=C/CNC(=O)NCCc4ccccc4)cc3c(=O)[nH]2)C(=O)O)c(C)c1C` [Compound 80, (αS)-3,4-dihydro-4-oxo-α-[[(2,3,4,5,6-pentamethylphenyl)sulfonyl]amino]-6-[(1E)-3-[[[(2-phenylethyl)amino]carbonyl]amino]-1-propenyl]-2-quinazolinepropanoic acid], in test [2], the IC50 was found to be 2700 nM.
